Source: the NIST ThermoML archive (doi:10.1016/j.jct.2008.05.014)

What was measured:
[1] = xn = mol fraction of the nth substance listed; conditions: Liquid, x1 = 1; for speed of sound: Pulse-echo method
[2] = Liquid; for speed of sound: Pulse-echo method
[3] = refractive index (Na D-line) (dimensionless); conditions: 298.15 K; 101.33 kPa; Liquid; Standard Abbe refractometry

CCCCCCC [heptane] + CCCCCCCCCCCC
[1]
Conditions	mass density [kg/m3]	speed of sound [m/s]
292.83 K, 101 kPa	–	1153.2
292.88 K, 45590 kPa	–	1417.7
292.88 K, 60790 kPa	–	1485.5
292.88 K, 75990 kPa	–	1547.2
292.88 K, 91180 kPa	–	1605
292.88 K, 101320 kPa	–	1641.2
292.89 K, 15200 kPa	–	1257
292.89 K, 30390 kPa	–	1342.4
293.15 K, 101 kPa	683.803	–
298.12 K, 101 kPa	–	1130.1
298.15 K, 101 kPa	679.548	–
298.15 K, 15200 kPa	–	1236.7
298.15 K, 30390 kPa	–	1323.7
298.15 K, 45590 kPa	–	1400.1
298.15 K, 60790 kPa	–	1469.1
298.15 K, 91180 kPa	–	1589.7
298.15 K, 101320 kPa	–	1626.4
298.16 K, 75990 kPa	–	1531.6
303.1 K, 101 kPa	–	1108.5
303.13 K, 60790 kPa	–	1453.5
303.13 K, 91180 kPa	–	1575.6
303.13 K, 101320 kPa	–	1612.6
303.14 K, 30390 kPa	–	1306.4
303.14 K, 45590 kPa	–	1383.7
303.14 K, 75990 kPa	–	1517
303.15 K, 101 kPa	675.293	–
303.15 K, 15200 kPa	–	1217.8
308.08 K, 101 kPa	–	1087
308.12 K, 45590 kPa	–	1367.9
308.12 K, 75990 kPa	–	1502.7
308.12 K, 91180 kPa	–	1561.5
308.12 K, 101320 kPa	–	1599.1
308.13 K, 15200 kPa	–	1199.2
308.13 K, 30390 kPa	–	1289.3
308.13 K, 60790 kPa	–	1438.4
308.15 K, 101 kPa	671.015	–
313.06 K, 101 kPa	–	1065.6
313.1 K, 30390 kPa	–	1272.5
313.1 K, 45590 kPa	–	1352.5
313.1 K, 60790 kPa	–	1423.8
313.1 K, 75990 kPa	–	1488.7
313.1 K, 91180 kPa	–	1548.1
313.1 K, 101320 kPa	–	1585.7
313.11 K, 15200 kPa	–	1180.7
313.15 K, 101 kPa	666.684	–
318.15 K, 101 kPa	662.324	–
318.28 K, 15200 kPa	–	1161.8
318.28 K, 30390 kPa	–	1255.3
318.28 K, 45590 kPa	–	1336.5
318.28 K, 60790 kPa	–	1408.6
318.28 K, 75990 kPa	–	1474.4
318.28 K, 91180 kPa	–	1534.3
318.28 K, 101320 kPa	–	1572.3
318.35 K, 101 kPa	–	1043

CCCCCCC [heptane]
[2]
Conditions	mass density [kg/m3]	speed of sound [m/s]
292.83 K, 101 kPa	–	1153.2
292.88 K, 45590 kPa	–	1417.7
292.88 K, 60790 kPa	–	1485.5
292.88 K, 75990 kPa	–	1547.2
292.88 K, 91180 kPa	–	1605
292.88 K, 101320 kPa	–	1641.2
292.89 K, 15200 kPa	–	1257
292.89 K, 30390 kPa	–	1342.4
293.15 K, 101 kPa	683.803	–
298.12 K, 101 kPa	–	1130.1
298.15 K, 101 kPa	679.548	–
298.15 K, 15200 kPa	–	1236.7
298.15 K, 30390 kPa	–	1323.7
298.15 K, 45590 kPa	–	1400.1
298.15 K, 60790 kPa	–	1469.1
298.15 K, 91180 kPa	–	1589.7
298.15 K, 101320 kPa	–	1626.4
298.16 K, 75990 kPa	–	1531.6
303.1 K, 101 kPa	–	1108.5
303.13 K, 60790 kPa	–	1453.5
303.13 K, 91180 kPa	–	1575.6
303.13 K, 101320 kPa	–	1612.6
303.14 K, 30390 kPa	–	1306.4
303.14 K, 45590 kPa	–	1383.7
303.14 K, 75990 kPa	–	1517
303.15 K, 101 kPa	675.293	–
303.15 K, 15200 kPa	–	1217.8
308.08 K, 101 kPa	–	1087
308.12 K, 45590 kPa	–	1367.9
308.12 K, 75990 kPa	–	1502.7
308.12 K, 91180 kPa	–	1561.5
308.12 K, 101320 kPa	–	1599.1
308.13 K, 15200 kPa	–	1199.2
308.13 K, 30390 kPa	–	1289.3
308.13 K, 60790 kPa	–	1438.4
308.15 K, 101 kPa	671.015	–
313.06 K, 101 kPa	–	1065.6
313.1 K, 30390 kPa	–	1272.5
313.1 K, 45590 kPa	–	1352.5
313.1 K, 60790 kPa	–	1423.8
313.1 K, 75990 kPa	–	1488.7
313.1 K, 91180 kPa	–	1548.1
313.1 K, 101320 kPa	–	1585.7
313.11 K, 15200 kPa	–	1180.7
313.15 K, 101 kPa	666.684	–
318.15 K, 101 kPa	662.324	–
318.28 K, 15200 kPa	–	1161.8
318.28 K, 30390 kPa	–	1255.3
318.28 K, 45590 kPa	–	1336.5
318.28 K, 60790 kPa	–	1408.6
318.28 K, 75990 kPa	–	1474.4
318.28 K, 91180 kPa	–	1534.3
318.28 K, 101320 kPa	–	1572.3
318.35 K, 101 kPa	–	1043

Conditions	refractive index
[3]	1.3853

CCCCCCCCCCCC [dodecane]
[2]
Conditions	mass density [kg/m3]	speed of sound [m/s]
292.87 K, 15200 kPa	–	1384.9
292.87 K, 30390 kPa	–	1457.9
292.87 K, 45590 kPa	–	1524.1
292.87 K, 60790 kPa	–	1584.5
292.87 K, 75990 kPa	–	1640.7
292.87 K, 91180 kPa	–	1692.8
292.87 K, 101320 kPa	–	1725.8
292.89 K, 101 kPa	–	1299.5
293.15 K, 101 kPa	748.921	–
298.15 K, 101 kPa	745.269	–
298.16 K, 101 kPa	–	1278.9
298.16 K, 15200 kPa	–	1365.9
298.16 K, 30390 kPa	–	1440
298.16 K, 45580 kPa	–	1507
298.16 K, 60790 kPa	–	1568
298.16 K, 75990 kPa	–	1625.2
298.16 K, 91180 kPa	–	1677.7
298.16 K, 101320 kPa	–	1711.1
303.14 K, 30390 kPa	–	1423.8
303.14 K, 45590 kPa	–	1491.4
303.14 K, 60790 kPa	–	1553.1
303.14 K, 75990 kPa	–	1610.9
303.14 K, 91180 kPa	–	1664.1
303.14 K, 101320 kPa	–	1697.4
303.15 K, 101 kPa	741.636	1259.3
303.15 K, 15200 kPa	–	1348.5
308.12 K, 101 kPa	–	1240.2
308.13 K, 75990 kPa	–	1596.8
308.13 K, 91180 kPa	–	1650.9
308.14 K, 15200 kPa	–	1331
308.14 K, 30390 kPa	–	1407.6
308.14 K, 45590 kPa	–	1476.3
308.14 K, 60790 kPa	–	1538.6
308.15 K, 101 kPa	738.031	–
313.1 K, 101 kPa	–	1221
313.15 K, 101 kPa	734.369	–
313.21 K, 15200 kPa	–	1313.4
313.21 K, 30390 kPa	–	1391.1
313.21 K, 45590 kPa	–	1460.8
313.21 K, 60790 kPa	–	1524.1
313.21 K, 75990 kPa	–	1582.5
313.21 K, 91180 kPa	–	1637.3
313.21 K, 101320 kPa	–	1671.3
318.15 K, 101 kPa	730.715	–
318.29 K, 15200 kPa	–	1296.2
318.29 K, 30390 kPa	–	1375
318.29 K, 45590 kPa	–	1445.5
318.29 K, 60790 kPa	–	1509.7
318.29 K, 91180 kPa	–	1624.1
318.29 K, 101320 kPa	–	1658.5
318.3 K, 75990 kPa	–	1568.8
318.39 K, 101 kPa	–	1200.9

Conditions	refractive index
[3]	1.4197
